# Test results from ChEMBL document CHEMBL1201862, “PubChem BioAssay data set” (2004).
# The source made the active and inactive calls.
# Columns and labels:
# [1] = biological target: 1-phosphatidylinositol 4,5-bisphosphate phosphodiesterase gamma-1 (Homo sapiens, UniProt P19174); test: Counterscreen for inhibitors of phospholipase C isozymes (PLC-B3): Fluorescence-based biochemical high throughput dose response assay to identify inhibitors of phospholipase C isozymes (PLC-gamma1).
# [2] = biological target: 1-phosphatidylinositol 4,5-bisphosphate phosphodiesterase beta-3 (Homo sapiens, UniProt Q01970); test: Fluorescence-based biochemical high throughput dose response assay to identify inhibitors of phospholipase C isozymes (PLC-B3).
# Vero [3] = test: mammalian cell viability reduction – secondary assay, cytotoxicity control for West Nile virus antiviral project, dose response (AID 1650); type: functional; details: Chlorocebus sabaeus
# Vero [4] = test: cells; type: functional, cell-based; details: Chlorocebus sabaeus
# Vero [5] = test: cells; type: functional; details: Chlorocebus sabaeus
# [6] = reduced cellular PGC1a acetyl-lysine signal – cell-based, cherry-picked samples, dose response (AID 720514); type: functional;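 note: potency may reflect raised or lowered acetylation signal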
# [7] = Trypanosoma cruzi growth suppression in host cells – NIH3T3 host cells, beta-gal luminescence, confirmation (AID 2044); type: functional, cell-based;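 note: intracellular parasites grown in NIH/3T3 mouse fibroblasts as host cells; luminescent beta-galactosidase reporter signal from transgenic T. cruzi replicating inside host cells; inhibitors lower the luminescence signal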
# [8] = NIH3T3 cell viability loss – ATP luminescence, mouse fibroblasts, counter-screen, dose response (AID 2010); type: functional, cell-based;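 note: cells exposed to compound for about 90 hours before reading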
# Transthyretin = Transthyretin (Homo sapiens, UniProt P02766); test: Luminescence-based cell-based high throughput dose response assay to identify activators of Transthyretin (TTR) transcription.; type: functional
# fMet-Leu-Phe receptor = fMet-Leu-Phe receptor (Homo sapiens, UniProt P21462); test: formyl peptide receptor binders – dose response (AID 519); type: functional
# [9] = potency of ADAM10 substrate cleavage blockers – biochemical, QFRET, dose response (AID 743254);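 note: ADAM10 enzyme with the DM2 quenched FRET peptide as substrate; EDANS fluorescence gain as the protease cuts the substrate; inhibitor potency against ADAM10 proteolytic activity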
# [10] = biological target: Disintegrin and metalloproteinase domain-containing protein 17 (Homo sapiens, UniProt P78536); test: inhibition of ADAM17 substrate cleavage – biochemical, quenched FRET substrate, counter-screen for ADAM10 exosite inhibitor project, dose response (AID 743253)
# HEK293 = test: viability loss in HEK293T cells – cell-based, ATP luminescence, cherry-pick samples, cytotoxicity control, dose response (AID 687005); type: functional; details: Homo sapiens;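 note: cells exposed to compound for 48 hours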
# [11] = HEK293 Cytotoxicity Assay Measured in Cell-Based System Using Plate Reader - 7071-01_Inhibitor_Dose_CherryPick_Activity_Set2.; type: functional
# [12] = microbe, parasite or virus in culture; type: functional; details: Mycobacterium tuberculosis
# Nonstructural protein 1 = Nonstructural protein 1 (Influenza A virus, UniProt Q194T2); type: functional, Influenza A virus (A/California/07/2009(H1N1))
# [13] = HGIII-sPLA2 enzyme inhibition potency – biochemical, QFRET, IC50, dose response (AID 743457);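 note: green fluorescence rise as the enzyme cleaves BODIPY PC-A2 in liposomes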
# [14] = biological target: T1, Oxysterols receptor LXR-beta (Homo sapiens, UniProt P55055); type: functional, cell-based;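 note: agonist activity at LXR measured by a cell-based luminescence readout across a dose range, run as a counterscreen for daf-12 agonists; HEK293 cells with Gal4-LXR fusion and GAL4-driven luciferase reporter; potency for activation of Gal4-LXR reporter so compounds are agonists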
# T1 sequence (P55055 whole entry): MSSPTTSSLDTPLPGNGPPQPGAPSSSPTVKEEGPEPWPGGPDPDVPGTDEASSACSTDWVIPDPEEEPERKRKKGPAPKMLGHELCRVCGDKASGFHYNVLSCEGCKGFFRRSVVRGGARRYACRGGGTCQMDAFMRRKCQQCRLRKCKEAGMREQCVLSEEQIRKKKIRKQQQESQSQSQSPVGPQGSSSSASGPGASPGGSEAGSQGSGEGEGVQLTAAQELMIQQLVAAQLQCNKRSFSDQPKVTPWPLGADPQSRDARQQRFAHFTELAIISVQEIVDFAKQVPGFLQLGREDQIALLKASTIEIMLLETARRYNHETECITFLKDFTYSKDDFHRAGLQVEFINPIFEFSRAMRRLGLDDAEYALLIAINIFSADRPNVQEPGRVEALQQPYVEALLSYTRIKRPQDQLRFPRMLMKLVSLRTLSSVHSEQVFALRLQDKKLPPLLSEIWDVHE
# [15] = biological target: T2, Aryl hydrocarbon receptor (Homo sapiens, UniProt P35869); test: Luminescence-based cell-based high throughput dose response assay for activators of the Aryl Hydrocarbon Receptor (AHR). [Related pubchem assays: 2796 (Primary screen (AHR activators in singlicate)), 2845 (Confirmation screen (AHR activators in triplicate)), 434939 (Counterscreen (PXR activators in triplicate)), 2804 (Summary (AHR activators))]; type: ADME
# T2 sequence (P35869 whole entry): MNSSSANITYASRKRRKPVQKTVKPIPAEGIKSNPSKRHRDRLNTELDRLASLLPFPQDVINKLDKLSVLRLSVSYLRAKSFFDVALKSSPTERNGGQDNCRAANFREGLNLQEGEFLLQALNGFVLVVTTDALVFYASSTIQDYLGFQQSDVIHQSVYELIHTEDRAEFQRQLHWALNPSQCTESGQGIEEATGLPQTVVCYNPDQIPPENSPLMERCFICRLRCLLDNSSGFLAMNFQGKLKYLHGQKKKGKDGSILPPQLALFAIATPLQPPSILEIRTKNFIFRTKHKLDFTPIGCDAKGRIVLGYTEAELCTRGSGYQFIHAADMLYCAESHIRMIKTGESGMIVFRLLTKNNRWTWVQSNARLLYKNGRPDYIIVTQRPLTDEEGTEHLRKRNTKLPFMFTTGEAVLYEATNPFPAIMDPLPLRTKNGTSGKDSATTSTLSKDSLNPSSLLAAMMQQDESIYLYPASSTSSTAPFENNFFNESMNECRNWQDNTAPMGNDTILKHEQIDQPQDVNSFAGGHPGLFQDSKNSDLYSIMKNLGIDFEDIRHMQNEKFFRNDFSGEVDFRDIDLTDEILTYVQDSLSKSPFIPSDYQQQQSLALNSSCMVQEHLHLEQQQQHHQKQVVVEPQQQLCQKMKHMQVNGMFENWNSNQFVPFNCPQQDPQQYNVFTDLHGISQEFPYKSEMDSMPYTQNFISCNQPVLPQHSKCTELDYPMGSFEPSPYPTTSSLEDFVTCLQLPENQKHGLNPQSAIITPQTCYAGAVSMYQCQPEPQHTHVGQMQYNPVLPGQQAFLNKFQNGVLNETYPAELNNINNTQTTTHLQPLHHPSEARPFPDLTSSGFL
# [16] = luciferase reporter signal suppression in cells – H4 neuroglioma cells, luminescence, dose response (AID 1990); type: functional, cell-based
# [17] = decrease of insulin promoter-GFP reporter – imaging, high-content screening, mouse beta cells (AID 1628); type: functional; details: MIN6
# BJ [18] = test: BJ-TERT fibroblast viability loss – cell-based, RAS-independent, luminescence, dose response (AID 1933); type: functional; details: Homo sapiens
# [19] = Luminescence Cell-Based Dose Response HTS to Identify Inhibitors of 5'UTR Stem-Loop Driven Prion Protein mRNA Translation in H4 Neuroglioblastoma Cells. [Related pubchem assays: 1827 (Project Summary), 1813 (Primary HTS)]; type: functional
# [20] = MIN6 cell viability loss – mouse insulinoma, cytotoxicity control, dose response (AID 2122); type: functional;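 note: confirmatory high-throughput counterscreen run to flag cytotoxic compounds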
# [21] = alpha-synuclein stem-loop luciferase translation blockers – H4 neuroglioma cells, luminescence, confirmation (AID 1988); type: functional, cell-based
# BJ [22] = test: cells; type: functional, cell-based; details: Homo sapiens
# BJ [23] = test: BJ-TERT-LT-ST fibroblast viability loss – cell-based, RAS-independent, luminescence, dose response (AID 1935); type: functional; details: Homo sapiens;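 note: BJ fibroblasts immortalized with TERT plus LT and ST oncogenes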
# [24] = DRD fibroblast viability loss – cell-based, non-viral oncogenic, luminescence, dose response (AID 1934); type: functional; details: Homo sapiens
# [25] = biological target: T3, Heat shock factor protein 1 (Mus musculus, UniProt P38532); test: enhancement of HSF1-driven luciferase signal – cell-based, NIH3T3, luminescence, dose retest, confirmation (AID 435004); type: functional;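 note: stress induced by proteasome inhibitor MG132 added 30 min after compound; luciferase reporter driven by HSF1 response element in NIH3T3 cells; actives raise luminescence as potentiators of the MG132 stress response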
# T3 sequence (P38532 whole entry): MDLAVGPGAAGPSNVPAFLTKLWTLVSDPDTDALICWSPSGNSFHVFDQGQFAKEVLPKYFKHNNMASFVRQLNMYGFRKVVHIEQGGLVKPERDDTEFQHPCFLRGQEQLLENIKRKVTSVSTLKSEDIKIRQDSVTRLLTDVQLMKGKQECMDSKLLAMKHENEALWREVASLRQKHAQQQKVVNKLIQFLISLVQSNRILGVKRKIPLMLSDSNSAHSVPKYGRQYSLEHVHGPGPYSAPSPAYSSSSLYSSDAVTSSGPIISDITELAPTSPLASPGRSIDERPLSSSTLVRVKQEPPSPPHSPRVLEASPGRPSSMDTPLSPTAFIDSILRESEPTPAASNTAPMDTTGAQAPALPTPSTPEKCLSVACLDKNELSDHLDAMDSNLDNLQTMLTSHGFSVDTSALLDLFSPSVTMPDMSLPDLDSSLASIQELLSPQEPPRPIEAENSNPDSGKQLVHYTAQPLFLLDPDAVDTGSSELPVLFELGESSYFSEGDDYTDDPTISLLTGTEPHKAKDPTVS
# [26] = viability loss in HepG2 hepatoma cells – cell-based, cherry-picks, set 5, cytotoxicity control, dose response (AID 1053118); type: functional
# [27] = viability loss in HEK293 kidney cells – cell-based, cherry-picks, set 5, cytotoxicity control, dose response (AID 1053117); type: functional
# Sequence of Disintegrin and metalloproteinase domain-containing protein 17 (P78536 whole entry, the tested form may be a part): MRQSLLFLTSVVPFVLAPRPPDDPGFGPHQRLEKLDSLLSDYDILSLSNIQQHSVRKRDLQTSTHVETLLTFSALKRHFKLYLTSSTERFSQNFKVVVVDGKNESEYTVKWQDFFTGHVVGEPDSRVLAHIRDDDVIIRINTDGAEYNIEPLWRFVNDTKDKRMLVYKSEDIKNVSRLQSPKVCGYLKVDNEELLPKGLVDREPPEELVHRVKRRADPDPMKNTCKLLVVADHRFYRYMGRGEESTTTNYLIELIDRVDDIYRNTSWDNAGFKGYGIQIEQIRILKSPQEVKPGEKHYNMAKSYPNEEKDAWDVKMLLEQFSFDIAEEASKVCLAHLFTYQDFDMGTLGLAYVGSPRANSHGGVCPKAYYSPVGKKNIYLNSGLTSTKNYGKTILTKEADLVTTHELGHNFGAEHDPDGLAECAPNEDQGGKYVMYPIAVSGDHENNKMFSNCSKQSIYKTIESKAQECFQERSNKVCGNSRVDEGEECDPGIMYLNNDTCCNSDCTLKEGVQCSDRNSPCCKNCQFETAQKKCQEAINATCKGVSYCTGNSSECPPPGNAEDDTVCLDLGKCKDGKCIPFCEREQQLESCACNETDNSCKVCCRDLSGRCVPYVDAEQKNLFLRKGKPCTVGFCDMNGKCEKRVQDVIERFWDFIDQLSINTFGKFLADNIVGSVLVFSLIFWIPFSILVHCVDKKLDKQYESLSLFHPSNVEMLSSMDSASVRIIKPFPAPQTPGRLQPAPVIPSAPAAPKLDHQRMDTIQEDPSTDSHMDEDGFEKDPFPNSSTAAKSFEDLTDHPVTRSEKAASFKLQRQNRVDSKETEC
# Sequence of 1-phosphatidylinositol 4,5-bisphosphate phosphodiesterase gamma-1 (P19174 whole entry): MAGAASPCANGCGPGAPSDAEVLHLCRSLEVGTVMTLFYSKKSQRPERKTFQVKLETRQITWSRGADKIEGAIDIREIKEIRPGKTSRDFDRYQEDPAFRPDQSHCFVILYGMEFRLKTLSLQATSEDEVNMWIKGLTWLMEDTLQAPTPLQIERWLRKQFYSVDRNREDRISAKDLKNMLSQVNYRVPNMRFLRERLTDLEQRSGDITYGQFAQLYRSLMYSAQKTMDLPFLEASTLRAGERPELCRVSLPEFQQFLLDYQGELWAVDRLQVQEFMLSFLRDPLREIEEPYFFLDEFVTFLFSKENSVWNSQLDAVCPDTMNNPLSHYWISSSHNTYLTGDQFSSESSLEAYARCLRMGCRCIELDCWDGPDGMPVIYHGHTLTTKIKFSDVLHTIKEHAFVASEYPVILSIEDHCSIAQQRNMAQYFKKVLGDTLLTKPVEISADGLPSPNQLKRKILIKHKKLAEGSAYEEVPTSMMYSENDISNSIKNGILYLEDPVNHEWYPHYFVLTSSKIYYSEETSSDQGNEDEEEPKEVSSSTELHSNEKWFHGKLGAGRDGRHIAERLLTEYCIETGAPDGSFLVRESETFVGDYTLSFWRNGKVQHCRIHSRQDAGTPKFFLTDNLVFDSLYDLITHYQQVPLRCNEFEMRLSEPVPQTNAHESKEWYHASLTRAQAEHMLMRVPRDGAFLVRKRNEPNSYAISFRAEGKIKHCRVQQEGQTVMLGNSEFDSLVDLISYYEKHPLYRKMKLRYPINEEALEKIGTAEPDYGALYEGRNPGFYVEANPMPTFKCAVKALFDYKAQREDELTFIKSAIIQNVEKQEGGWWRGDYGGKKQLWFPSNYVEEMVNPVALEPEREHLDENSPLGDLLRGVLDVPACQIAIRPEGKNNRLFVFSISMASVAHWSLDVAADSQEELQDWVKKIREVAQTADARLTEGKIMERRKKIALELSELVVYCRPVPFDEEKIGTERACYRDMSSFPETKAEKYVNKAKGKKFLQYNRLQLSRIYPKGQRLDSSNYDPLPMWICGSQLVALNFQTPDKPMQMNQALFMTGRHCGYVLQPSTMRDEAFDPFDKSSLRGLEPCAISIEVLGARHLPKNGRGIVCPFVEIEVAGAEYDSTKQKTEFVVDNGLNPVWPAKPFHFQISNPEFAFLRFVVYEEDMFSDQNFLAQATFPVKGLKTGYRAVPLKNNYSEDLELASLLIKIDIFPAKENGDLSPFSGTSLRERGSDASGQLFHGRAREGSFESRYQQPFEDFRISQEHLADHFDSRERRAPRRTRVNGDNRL
# Sequence of 1-phosphatidylinositol 4,5-bisphosphate phosphodiesterase beta-3 (Q01970 whole entry): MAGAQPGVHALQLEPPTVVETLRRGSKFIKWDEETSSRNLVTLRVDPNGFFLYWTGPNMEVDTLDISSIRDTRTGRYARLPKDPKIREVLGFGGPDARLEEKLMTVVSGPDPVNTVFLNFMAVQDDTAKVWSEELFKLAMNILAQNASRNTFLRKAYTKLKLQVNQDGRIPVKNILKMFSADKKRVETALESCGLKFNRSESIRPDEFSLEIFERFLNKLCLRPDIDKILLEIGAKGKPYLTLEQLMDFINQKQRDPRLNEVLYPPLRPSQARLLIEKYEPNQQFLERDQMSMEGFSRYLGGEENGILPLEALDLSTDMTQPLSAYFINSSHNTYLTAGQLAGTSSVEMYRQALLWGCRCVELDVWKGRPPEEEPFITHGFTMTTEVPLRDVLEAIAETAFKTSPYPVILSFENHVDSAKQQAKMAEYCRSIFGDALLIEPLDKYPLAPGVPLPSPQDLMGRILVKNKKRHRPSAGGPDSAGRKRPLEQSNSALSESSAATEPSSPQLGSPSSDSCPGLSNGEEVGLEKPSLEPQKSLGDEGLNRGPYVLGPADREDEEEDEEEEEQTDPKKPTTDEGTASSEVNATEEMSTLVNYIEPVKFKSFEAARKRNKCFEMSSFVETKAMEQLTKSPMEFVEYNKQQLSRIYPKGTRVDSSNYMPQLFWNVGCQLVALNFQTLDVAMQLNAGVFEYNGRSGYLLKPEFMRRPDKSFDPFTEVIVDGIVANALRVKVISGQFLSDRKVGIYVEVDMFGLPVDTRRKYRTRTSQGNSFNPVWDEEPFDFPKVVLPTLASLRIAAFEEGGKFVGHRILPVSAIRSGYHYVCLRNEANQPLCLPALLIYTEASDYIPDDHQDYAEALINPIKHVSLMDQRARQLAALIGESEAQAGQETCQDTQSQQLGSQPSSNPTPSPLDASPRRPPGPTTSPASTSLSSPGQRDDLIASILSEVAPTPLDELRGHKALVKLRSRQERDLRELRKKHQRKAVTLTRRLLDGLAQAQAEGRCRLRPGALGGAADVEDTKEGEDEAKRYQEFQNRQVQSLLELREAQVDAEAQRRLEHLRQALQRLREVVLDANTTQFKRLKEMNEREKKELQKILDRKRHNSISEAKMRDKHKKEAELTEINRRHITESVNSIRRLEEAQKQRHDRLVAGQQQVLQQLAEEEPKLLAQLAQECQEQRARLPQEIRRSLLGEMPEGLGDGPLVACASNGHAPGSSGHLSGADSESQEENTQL
# Sequence of Nonstructural protein 1 (Q194T2 whole entry): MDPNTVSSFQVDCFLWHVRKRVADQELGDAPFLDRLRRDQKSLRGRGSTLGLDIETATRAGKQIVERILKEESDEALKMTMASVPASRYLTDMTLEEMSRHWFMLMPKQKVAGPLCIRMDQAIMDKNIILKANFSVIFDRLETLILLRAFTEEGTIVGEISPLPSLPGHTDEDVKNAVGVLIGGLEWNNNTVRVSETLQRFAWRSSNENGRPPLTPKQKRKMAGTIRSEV
# Sequence of fMet-Leu-Phe receptor (P21462 whole entry): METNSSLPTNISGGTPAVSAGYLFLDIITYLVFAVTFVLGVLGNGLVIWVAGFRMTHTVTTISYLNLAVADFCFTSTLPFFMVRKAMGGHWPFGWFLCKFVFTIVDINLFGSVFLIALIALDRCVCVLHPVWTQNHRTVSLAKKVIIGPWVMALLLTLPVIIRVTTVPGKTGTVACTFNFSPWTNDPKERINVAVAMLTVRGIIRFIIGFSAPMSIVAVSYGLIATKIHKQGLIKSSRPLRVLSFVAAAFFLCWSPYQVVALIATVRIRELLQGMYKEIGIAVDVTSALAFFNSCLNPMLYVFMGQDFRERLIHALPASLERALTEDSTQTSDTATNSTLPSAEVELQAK
structure (smiles),measurement,setting,value
O=c1[nH]c2ccccc2c(=O)n1-c1ccc(Cl)cc1Cl,IC50,[1],> 122 µM (inactive)
same,IC50,[2],> 122 µM (inactive)
Cc1nc2ccccn2c1C(=O)/C=C/c1ccc(F)cc1,CC50,Vero [3],25.6 µM (active)
same,IC50,Vero [4],> 25 µM (active)
same,CC50,Vero [5],18.7 µM (active)
same,AC50,[6],0.76 µM (active)
CN(C)CC#CCC(O)(c1ccccc1)C1CCCC1 (stereo unspecified),EC50,[7],< 0.1 µM (active)
same,EC50,[8],> 60 µM (not active)
same,EC50,cells,0.016 µM (active)
CC(=O)c1cc(C(C)=O)c(C)nc1C,EC50,Transthyretin,> 167 µM (inactive)
CCOC(=O)Cc1cc(O)n2nc(C)c(-c3ccc(Cl)cc3)c2n1,Ki,fMet-Leu-Phe receptor,19 µM (inactive)
O=C(COC(=O)c1ccc(Cl)c(S(=O)(=O)N2CCCCCC2)c1)Nc1ccccc1,IC50,[9],> 69.5 µM (inactive)
same,IC50,[10],> 69.5 µM (inactive)
S=C(Nc1cccc(Cl)c1)Nc1ccccc1Oc1ccccc1,AC50,HEK293,23.5 µM (active)
same,AC50,[11],23.5 µM (active)
COC(=O)C(Cc1ccc(O)cc1)NC(=O)C(C)NC(=O)c1ccc(C(C)(C)C)cc1 (stereo unspecified),IC50,[1],> 123 µM (inactive)
same,IC50,[2],> 123 µM (inactive)
Cc1cc(C)c(C)c(N=Nc2nc3ccccc3n2C)c1C,CC50,[12],> 40 µM (active)
same,IC50,Nonstructural protein 1,17.6 µM (active)
same,IC50,[13],> 122 µM (inactive)
Cc1c(C(=O)OC2CCC(C)CC2)[nH]c2c1C(=O)CCC2 (stereo unspecified),EC50,[14],> 67.5 µM (inactive)
Cc1ccc2c(c1)c1nc3ccccc3nc1n2C,EC50,[15],1 µM (active)
CCOc1ccc(NC2=NC(=O)S/C2=C\c2ccc(O)cc2)cc1,EC50,Transthyretin,> 167 µM (inactive)
Cn1c(Cl)cnc1C1CC(=O)c2cc(Cl)ccc2O1 (stereo unspecified),EC50,[16],10.9 µM (active)
same,IC50,[17],2.95 µM (active)
same,EC50,BJ [18],8.07 µM (active)
same,EC50,[19],10.1 µM (active)
same,IC50,[20],1.98 µM (active)
same,CC50,Vero [3],17.9 µM (active)
same,EC50,[21],> 120 µM (not active)
same,EC50,BJ [22],8.32 µM (inconclusive)
same,EC50,BJ [23],7.45 µM (inconclusive)
same,EC50,[24],7.73 µM (active)
same,EC50,[25],38.8 µM (active)
same,AC50,[6],16.9 µM (active)
CN(C)CCN(C(=O)c1ccc(S(=O)(=O)N2CCc3ccccc32)cc1)c1nc2ccc(F)cc2s1,EC50,[7],< 0.1 µM (active)
same,EC50,[8],> 60 µM (not active)
same,EC50,cells,0.188 µM (active)
CC(C)C1C(=O)N(Cc2cn(CC3CCCCC3)nn2)CCS(=O)(=O)N1Cc1ccc(-c2ccccc2)cc1 (stereo unspecified),IC50,[9],10.2 µM (inactive)
same,IC50,[10],> 69.5 µM (inactive)
C[C@@H]1CN([C@@H](C)CO)C(=O)c2cc(NS(=O)(=O)c3ccc(F)cc3)ccc2O[C@@H](C)CCCCO[C@@H]1CN(C)Cc1ccc2c(c1)OCO2,AC50,HEK293,28.3 µM (active)
same,AC50,[11],28.3 µM (active)
CO[C@H]1CN(C)C(=O)c2cc(NC(=O)Nc3cc(Cl)cc(Cl)c3)ccc2OC[C@@H](C)NC[C@H]1C,AC50,[26],42.6 µM (active)
same,AC50,[27],> 52 µM (inactive)
O=C(N/N=C/c1ccc(-c2ccccc2[N+](=O)[O-])o1)c1cncc(Br)c1,EC50,[15],6.71 µM (active)
O=c1[nH]cnc2cc(-c3ccccc3)sc12,EC50,[14],> 67.5 µM (inactive)
